Test systems include CCRF-CEM; EKVX; HCC 2998; HL-60; HOP-92; LOX IMVI; OVCAR-8; SF-295; SNB-19; TK-10; HOP-62; NCI-H226; NCI-H522; UACC-257; RXF 393.
Common to all, as to experiment: NCI-60 cell line screen, 48 h

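Tested at 5 concentrations; 48 h exposure; 96-well plates; endpoints linearly interpolated, else capped at highest concentration. At the GI50, growth is halved.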 Calls of active or inactive are those of the source. Rule as the data show it: active = GI50 up to about 1.1 µM and inactive = higher.

On to `O=C1/C(=C/c2cc(O)c(O)c(O)c2)Oc2cc(O)cc(OC3OC(CO)C(O)C(O)C3O)c21` (stereo not given), for which the GI50 in the assay on CCRF-CEM is 17.5 µM (inactive); in the assay on EKVX, 43.6 µM (inactive); in the assay with HCC 2998, 39.2 µM (inactive); in the assay with HL-60 it was 15.6 µM (inactive); with HOP-92, 3.82 µM (inactive); with LOX IMVI it was 1.73 µM (inactive). For the same molecule, the GI50 in the assay on OVCAR-8 is 18.2 µM (inactive); in the assay with SF-295, 16.5 µM (inactive); in the assay with SNB-19, > 100 µM (inactive); in the assay on TK-10 it was 30.5 µM (inactive).
In the case of `C=CCc1cc(-c2cc(CC=C)c(O)c(CNCCCl)c2)cc(CNCCCl)c1O`, the GI50 was 18.3 µM (inactive) with CCRF-CEM; 17.3 µM (inactive) in the assay on HCC 2998; 17.3 µM (inactive) with HL-60; 18 µM (inactive) with HOP-62; 10.6 µM (inactive) with HOP-92; 15.3 µM (inactive) in the assay on LOX IMVI. Moreover, the GI50 in the assay on NCI-H226 was 18.3 µM (inactive); in the assay with NCI-H522, 16.9 µM (inactive); with OVCAR-8, 19.9 µM (inactive); in the assay with SF-295, 17.5 µM (inactive); in the assay with SNB-19 it was 30 µM (inactive); with TK-10, 19.6 µM (inactive). Moreover, the GI50 in the assay on UACC-257 is 17.4 µM (inactive).
Regarding `CC(=O)/C=C1\CC(=O)Nc2ccccc2N1`, the GI50 in the assay with CCRF-CEM is 2.79 µM (inactive); in the assay with EKVX, > 100 µM (inactive); in the assay with HCC 2998 it was > 100 µM (inactive); in the assay on HL-60 it was > 100 µM (inactive); in the assay with HOP-92, > 100 µM (inactive); in the assay on LOX IMVI, > 100 µM (inactive). In addition, the GI50 in the assay with NCI-H226, in the assay on OVCAR-8, with RXF 393, in the assay on SF-295, in the assay on SNB-19 and in the assay on TK-10 was > 100 µM (inactive) in each case. Further, in the assay on UACC-257, the GI50 is > 100 µM (inactive).
Turning to `Cc1cccc(C)c1NC(=O)/C(=N/NC(N)=S)C(C)C(=O)c1ccc(Cl)cc1` (stereo not given), the GI50 is > 100 µM (inactive) with CCRF-CEM; > 100 µM (inactive) with EKVX; > 100 µM (inactive) with HCC 2998; 93.8 µM (inactive) in the assay with HL-60; > 100 µM (inactive) in the assay on HOP-62; > 100 µM (inactive) in the assay on HOP-92. Further, the GI50 in the assay with NCI-H226 was > 100 µM (inactive); in the assay with NCI-H522 it was 89.9 µM (inactive); in the assay on OVCAR-8, > 100 µM (inactive); with SF-295, > 100 µM (inactive); in the assay on SNB-19, > 100 µM (inactive); with TK-10, > 100 µM (inactive). In the assay with UACC-257, the GI50 was > 100 µM (inactive).
For the molecule `O=C(CC1(O)C(=O)Nc2ccc(Br)cc21)c1ccc(Cl)cc1` (stereo not given), the GI50 in the assay on CCRF-CEM is 38.9 µM (inactive); in the assay with EKVX, > 100 µM (inactive); in the assay on HL-60, > 10 µM (inactive); with HOP-62, 68.9 µM (inactive); in the assay on HOP-92, 35.2 µM (inactive); in the assay on LOX IMVI, 18.2 µM (inactive). The GI50 in the assay on NCI-H226 is > 100 µM (inactive); in the assay on NCI-H522, > 100 µM (inactive); in the assay with OVCAR-8, 52 µM (inactive); in the assay on RXF 393, 52.2 µM (inactive); in the assay on SF-295 it was > 100 µM (inactive); with SNB-19 it was 84.9 µM (inactive). The figures for the GI50 in the assay with TK-10 and in the assay on UACC-257 were > 100 µM (inactive) and 30.2 µM (inactive), respectively.
Take `CC(C)=CCOc1ccc(-c2coc3cc4c(c(O)c3c2=O)C=CC(C)(C)O4)cc1`: the GI50 in the assay on CCRF-CEM is 43.5 µM (inactive); in the assay on EKVX it was 5.22 µM (inactive); in the assay on HCC 2998 it was 83.6 µM (inactive); with HL-60, > 100 µM (inactive); in the assay with HOP-62 it was > 100 µM (inactive); in the assay with LOX IMVI, 1.7 µM (inactive). In addition, the GI50 in the assay on NCI-H226 is > 100 µM (inactive); in the assay with NCI-H522, 0.129 µM (active); with OVCAR-8, 50.7 µM (inactive); in the assay with RXF 393 it was > 100 µM (inactive); in the assay on SF-295 it was 49.5 µM (inactive); in the assay on SNB-19, 56 µM (inactive). Moreover, the GI50 in the assay with TK-10 is > 100 µM (inactive); with UACC-257, 14.3 µM (inactive).
With `Cc1ccc2c(c1)CNc1ccc(C)cc1CN2`, the GI50 in the assay with CCRF-CEM, in the assay with EKVX, with HL-60, in the assay with HOP-62, with HOP-92 and with LOX IMVI was > 100 µM (inactive) throughout. The GI50 with NCI-H226 is > 100 µM (inactive); with NCI-H522, > 100 µM (inactive); in the assay on OVCAR-8, > 100 µM (inactive); in the assay on SF-295, > 100 µM (inactive); in the assay on SNB-19, < 0.01 µM (active).
On to `O=[PH](O)c1cc2c3ccccc3ccc2c2ccccc12`, for which the GI50 in the assay on CCRF-CEM, in the assay on EKVX, with HCC 2998, in the assay on HL-60, in the assay on HOP-62 and in the assay with LOX IMVI was > 100 µM (inactive) throughout. For the same molecule, the GI50 with NCI-H226 was 13.9 µM (inactive); with NCI-H522, > 100 µM (inactive); in the assay on OVCAR-8, > 100 µM (inactive); in the assay with RXF 393 it was > 100 µM (inactive); in the assay with SF-295, > 100 µM (inactive); in the assay with SNB-19 it was > 100 µM (inactive). Also, the GI50 in the assay with TK-10 was > 100 µM (inactive).
For the molecule `C/N=C(\N=c1/ss/c(=N\C)n1C)N(C)C.[O-][Cl+3]([O-])([O-])O`, the GI50 in the assay with EKVX was > 100 µM (inactive); in the assay on HCC 2998, > 100 µM (inactive); in the assay on HL-60, 43.5 µM (inactive); in the assay with HOP-92, > 100 µM (inactive); in the assay with LOX IMVI, 45.9 µM (inactive); in the assay with NCI-H226, 45.2 µM (inactive). The GI50 is 76 µM (inactive) in the assay on NCI-H522; 97.1 µM (inactive) in the assay with OVCAR-8; > 100 µM (inactive) in the assay on RXF 393; > 100 µM (inactive) in the assay with SF-295; > 100 µM (inactive) with SNB-19; > 100 µM (inactive) in the assay on TK-10. Moreover, the GI50 in the assay with UACC-257 is 97.3 µM (inactive).
On to `N/N=C1\C(=O)N(C2CCCCC2)C(=O)C1C(=O)NC1CCCCC1` (stereo not given), for which the GI50 with CCRF-CEM is > 100 µM (inactive); in the assay with EKVX, > 100 µM (inactive); with HCC 2998, > 100 µM (inactive); in the assay with HL-60 it was 26.2 µM (inactive); in the assay on HOP-62, > 100 µM (inactive); in the assay on HOP-92, > 100 µM (inactive). Besides, the GI50 in the assay on LOX IMVI, with NCI-H226, with NCI-H522, in the assay with OVCAR-8, in the assay with SF-295 and with SNB-19 was > 100 µM (inactive) throughout. Further, in the assay on UACC-257, the GI50 was 87.9 µM (inactive).
For `CCOC(=O)C1(C/C=C(/C)Cl)CCCC1=O` (stereo not given), the GI50 is > 100 µM (inactive) in the assay on CCRF-CEM; > 100 µM (inactive) in the assay on EKVX; 86.5 µM (inactive) in the assay with HL-60; > 100 µM (inactive) in the assay on HOP-62; > 100 µM (inactive) with LOX IMVI; > 100 µM (inactive) with NCI-H226. For the same molecule, the GI50 with NCI-H522, in the assay on OVCAR-8, with RXF 393, in the assay on SF-295, with SNB-19 and with TK-10 was > 100 µM (inactive) in each case. Further, the GI50 in the assay with UACC-257 was > 100 µM (inactive).

For the origin of these results see ChEMBL document CHEMBL1201862, “PubChem BioAssay data set” (2004).
